Like-named read-outs stand apart in the source and are kept apart here.
What was measured:
[1] = tested on: Burkholderia cepacia; format: cell-based
[2] = tested on: Burkholderia multivorans; format: cell-based
[3] = tested on: Burkholderia ambifaria; format: cell-based
[4] = tested on: Burkholderia stabilis; format: cell-based
[5] = tested on: Burkholderia pseudomallei; format: cell-based
[6] = tested on: Burkholderia pyrrocinia; format: cell-based
[7] = tested on: Burkholderia dolosa; format: cell-based
[8] = tested on: Burkholderia anthina; format: cell-based
[9] = tested on: Burkholderia vietnamiensis; format: cell-based
[10] = tested on: Burkholderia mallei; format: cell-based
[11] = tested on: Burkholderia cenocepacia; format: cell-based
[12] = tested on: Burkholderia gladioli; format: cell-based
[13] = tested on: bacteria of the Burkholderia genus; format: cell-based; conditions: all species of bacteria of the Burkholderia genus
[14] = tested on: Pseudomonas aeruginosa; conditions: all three groups of patients; day 10 of therapy
[15] = tested on: Burkholderia cepacia; conditions: 0.02% solution
[16] = white crystalline powder; cited from earlier work

N=C(NCCCCCCNC(=N)NC(=N)Nc1ccc(Cl)cc1)NC(=N)Nc1ccc(Cl)cc1 [chlorhexidine bigluconate]
++: activity ([2]; Concentration 0,2%) | activity ([2]; Concentration 0.1%) | activity ([7]; Concentration 0,2%) | activity ([7]; Concentration 0.1%) | activity ([12]; Concentration 0,2%)
+: activity ([1]; Concentration 0,2%) | activity ([1]; Concentration 0.1%) | activity ([2]; Concentration 0.02%) | activity ([2]; Concentration 0.05%) | activity ([3]; Concentration 0,2%) | activity ([3]; Concentration 0.1%) | activity ([4]; Concentration 0,2%) | activity ([4]; Concentration 0.02%) | activity ([4]; Concentration 0.05%) | activity ([4]; Concentration 0.1%) | activity ([5]; Concentration 0,2%) | activity ([5]; Concentration 0.1%) | activity ([6]; Concentration 0,2%) | activity ([6]; Concentration 0.1%) | activity ([7]; Concentration 0.02%) | activity ([7]; Concentration 0.05%) | activity ([8]; Concentration 0,2%) | activity ([8]; Concentration 0.1%) | activity ([9]; Concentration 0,2%) | activity ([9]; Concentration 0.05%) | activity ([9]; Concentration 0.1%) | activity ([10]; Concentration 0,2%) | activity ([10]; Concentration 0.1%) | activity ([11]; Concentration 0,2%) | activity ([11]; Concentration 0.02%) | activity ([11]; Concentration 0.05%) | activity ([11]; Concentration 0.1%) | activity ([12]; Concentration 0.02%) | activity ([12]; Concentration 0.05%) | activity ([12]; Concentration 0.1%)
-: activity ([1]; Concentration 0.02%) | activity ([1]; Concentration 0.05%) | activity ([3]; Concentration 0.02%) | activity ([3]; Concentration 0.05%) | activity ([5]; Concentration 0.02%) | activity ([5]; Concentration 0.05%) | activity ([6]; Concentration 0.02%) | activity ([6]; Concentration 0.05%) | activity ([8]; Concentration 0.02%) | activity ([8]; Concentration 0.05%) | activity ([9]; Concentration 0.02%) | activity ([10]; Concentration 0.02%) | activity ([10]; Concentration 0.05%)

CC1CCC(C(C)C)C(OC(=O)C[N+](C)(C)CCCCCCCCCC[N+](C)(C)CC(=O)OC2CC(C)CCC2C(C)C)C1 (stereo not drawn) [decamethoxine, 1,10-decamethylene-bis(N,N-dimethyl-menthoxycarbonylmethyl)ammonium dichloride]
No patients had negative side effects: negative side effects making withdrawal necessary ([15]; ultrasonic inhalations)
exhibits bactericidal activity: bactericidal activity [13]
41%: patients with positive effect after decamethoxine therapy ([15]; ultrasonic inhalations)
the patients were cured: clinical outcome (clinical, laboratory and functional indices) [14]
Good tolerance: tolerance to the therapy ([15]; ultrasonic inhalations, all patients)
75%: patients with body temperature normalized ([15]; ultrasonic inhalations 5-20 ml 1-2 times daily, days 3-5) | patients with persistent cough ([15]; ultrasonic inhalations, days 3-5, character changed from "strong" to "moderate" or "weak")
readily soluble in water: solubility in water [16]
++: activity ([1]; Concentration 0.05%) | activity ([2]; Concentration 0.05%) | activity ([3]; Concentration 0.05%) | activity ([4]; Concentration 0.05%) | activity ([5]; Concentration 0.05%) | activity ([6]; Concentration 0.05%) | activity ([7]; Concentration 0.05%) | activity ([8]; Concentration 0.05%) | activity ([9]; Concentration 0.05%) | activity ([10]; Concentration 0.05%) | activity ([11]; Concentration 0.05%) | activity ([12]; Concentration 0.05%)
43%: cases in which fine moist rales were heard ([15]; ultrasonic inhalations, physical examination)
7 days: Mean therapy time ([15]; ultrasonic inhalations)
+: activity ([1]; Concentration 0.02%) | activity ([2]; Concentration 0.02%) | activity ([3]; Concentration 0.02%) | activity ([4]; Concentration 0.02%) | activity ([5]; Concentration 0.02%) | activity ([6]; Concentration 0.02%) | activity ([7]; Concentration 0.02%) | activity ([8]; Concentration 0.02%) | activity ([9]; Concentration 0.02%) | activity ([10]; Concentration 0.02%) | activity ([11]; Concentration 0.02%) | activity ([12]; Concentration 0.02%)
14%: patients complaining of moderate cough ([15]; ultrasonic inhalations, days 7-10)
+++: activity ([1]; Concentration 0,2%) | activity ([1]; Concentration 0.1%) | activity ([2]; Concentration 0,2%) | activity ([2]; Concentration 0.1%) | activity ([3]; Concentration 0,2%) | activity ([3]; Concentration 0.1%) | activity ([4]; Concentration 0,2%) | activity ([4]; Concentration 0.1%) | activity ([5]; Concentration 0,2%) | activity ([5]; Concentration 0.1%) | activity ([6]; Concentration 0,2%) | activity ([6]; Concentration 0.1%) | activity ([7]; Concentration 0,2%) | activity ([7]; Concentration 0.1%) | activity ([8]; Concentration 0,2%) | activity ([8]; Concentration 0.1%) | activity ([9]; Concentration 0,2%) | activity ([9]; Concentration 0.1%) | activity ([10]; Concentration 0,2%) | activity ([10]; Concentration 0.1%) | activity ([11]; Concentration 0,2%) | activity ([11]; Concentration 0.1%) | activity ([12]; Concentration 0,2%) | activity ([12]; Concentration 0.1%)
30%: patients in whom dyspnea persisted ([15]; ultrasonic inhalations, days 3-5, characterized as "insignificant")

Source: patent publication EP3138561A1 (priority 2014, dated 2015)
